Data: ChEMBL document CHEMBL1129922, “Preparation and antibacterial activity of pyridopyridone analogs: C-1 modifications” (1997)
Values after ≈ are worked out from the molar mass of the structure shown.

What was measured:
Assay type in all cases: functional
[1] = system: Enterococcus faecium; assay: In vitro antibacterial activity against Enterococcus faecium ATCC 8043 organism, activity expressed as minimum inhibitory concentration (MIC)
[2] = system: Escherichia coli; assay: In vitro antibacterial activity against Escherichia coli juhl organism, activity expressed as minimum inhibitory concentration (MIC)
[3] = system: Pseudomonas aeruginosa; assay: In vitro antibacterial activity against Pseudomonas aeruginosa K799/WT organism, activity expressed as minimum inhibitory concentration (MIC)
[4] = system: Staphylococcus aureus; assay: In vitro antibacterial activity against Staphylococcus aureus 1775 organism expressed as minimum inhibitory concentration (MIC)
[5] = system: Streptococcus pyogenes; assay: In vitro antibacterial activity against Streptococcus pyogenes 930 organism, activity expressed as minimum inhibitory concentration (MIC)
[6] = system: Staphylococcus aureus; assay: In vitro antibacterial activity against Staphylococcus aureus NCTC 10649M organism expressed as minimum inhibitory concentration (MIC)

| SMILES | MIC [1] [µg/mL] | MIC [2] [µg/mL] | MIC [3] [µg/mL] | MIC [4] [µg/mL] | MIC [5] [µg/mL] | MIC [6] [µg/mL] |
| --- | --- | --- | --- | --- | --- | --- |
| Cc1c(N2CC[C@H](N)C2)c(F)cn2c(=O)c(C(=O)O)cc(C3CCCC3)c12 | 12.5 (≈ 33.5 µM) | 0.78 (≈ 2.09 µM) | 25 (≈ 66.9 µM) | 50 (≈ 134 µM) | 12.5 (≈ 33.5 µM) | 3.1 (≈ 8.3 µM) |
| Cc1c(N2CC[C@H](N)C2)c(F)cn2c(=O)c(C(=O)O)cc(C(C)C)c12 | 0.2 (≈ 0.576 µM) | 0.39 (≈ 1.12 µM) | 1.56 (≈ 4.49 µM) | 6.2 (≈ 17.8 µM) | 0.2 (≈ 0.576 µM) | 0.1 (≈ 0.288 µM) |
| C=CCc1cc(C(=O)O)c(=O)n2cc(F)c(N3CC[C@H](N)C3)c(C)c12 | 1.56 (≈ 4.52 µM) | 1.56 (≈ 4.52 µM) | 3.1 (≈ 8.98 µM) | > 100 | 1.56 (≈ 4.52 µM) | 0.78 (≈ 2.26 µM) |
| COCCc1cc(C(=O)O)c(=O)n2cc(F)c(N3CC[C@H](N)C3)c(C)c12 | > 100 | 12.5 (≈ 34.4 µM) | 100 (≈ 275 µM) | > 100 | – | 50 (≈ 138 µM) |
| Cc1c(N2CC[C@H](N)C2)c(F)cn2c(=O)c(C(=O)O)ccc12 | 25 (≈ 81.9 µM) | 0.39 (≈ 1.28 µM) | 6.2 (≈ 20.3 µM) | > 100 | 12.5 (≈ 40.9 µM) | 3.1 (≈ 10.2 µM) |
| Cc1c(N2CC[C@H](N)C2)c(F)cn2c(=O)c(C(=O)O)cc(C3CC3)c12 [ABT-719] | 0.02 (≈ 0.0579 µM) | 0.01 (≈ 0.029 µM) | 0.05 (≈ 0.145 µM) | 0.78 (≈ 2.26 µM) | 0.02 (≈ 0.0579 µM) | 0.01 (≈ 0.029 µM) |
| Cc1c(N2CC[C@H](N)C2)c(F)cn2c(=O)c(C(=O)O)cc(CC(C)(C)C)c12 | 6.2 (≈ 16.5 µM) | – | 12.5 (≈ 33.3 µM) | 50 (≈ 133 µM) | 3.1 (≈ 8.26 µM) | 1.56 (≈ 4.16 µM) |
| Cc1c(N2CC[C@H](N)C2)c(F)cn2c(=O)c(C(=O)O)cc(CC3CC3)c12 | 6.2 (≈ 17.3 µM) | 0.78 (≈ 2.17 µM) | 12.5 (≈ 34.8 µM) | 25 (≈ 69.6 µM) | 6.2 (≈ 17.3 µM) | 1.56 (≈ 4.34 µM) |
| Cc1c(N2CC[C@H](N)C2)c(F)cn2c(=O)c(C(=O)O)cc(C3CCC3)c12 | 0.39 (≈ 1.09 µM) | 0.05 (≈ 0.139 µM) | 3.1 (≈ 8.63 µM) | 12.5 (≈ 34.8 µM) | 0.39 (≈ 1.09 µM) | 0.1 (≈ 0.278 µM) |
| CCC(C)c1cc(C(=O)O)c(=O)n2cc(F)c(N3CC[C@H](N)C3)c(C)c12 (stereo not given in full) | 12.5 (≈ 34.6 µM) | 1.56 (≈ 4.32 µM) | 50 (≈ 138 µM) | > 100 | 50 (≈ 138 µM) | 6.2 (≈ 17.2 µM) |
| C=Cc1cc(C(=O)O)c(=O)n2cc(F)c(N3CC[C@H](N)C3)c(C)c12 | 1.56 (≈ 4.71 µM) | 0.2 (≈ 0.604 µM) | 0.78 (≈ 2.35 µM) | > 100 | 1.56 (≈ 4.71 µM) | 0.78 (≈ 2.35 µM) |
| Cc1cc(C(=O)O)c(=O)n2cc(F)c(N3CC[C@H](N)C3)c(C)c12 | 0.39 (≈ 1.22 µM) | 0.05 (≈ 0.157 µM) | 3.1 (≈ 9.71 µM) | 12.5 (≈ 39.1 µM) | 0.39 (≈ 1.22 µM) | 0.1 (≈ 0.313 µM) |
